Data from patent US6861390B2, “Derivatives of UK-2A” (priority 2001, dated 2005).

Assays:
[1] = system: Leptosphaeria nodorum (LEPTNO); assay: Glume Blotch of Wheat, whole plant 24 Hour Protectant (T2); conditions: Parastagonospora nodorum; wheat (cultivar Yuma), sprayed at 100 ppm, inoculated after 24 hours; read-out: T2 LEPTNO in vivo 1 Day Protectant, control of fungal infection
[2] = system: Erysiphe graminis (ERYSGT); assay: Powdery Mildew of Wheat, whole plant 24 Hour Protectant (T1); conditions: Blumeria graminis, in Triticum aestivum, read-out: T1 ERYSGT in vivo 1 Day Protectant, control of fungal infection
[3] = system: Stagonospora nodorum (Leptosphaeria nodorum, LEPTNO); assay: microbe, parasite or virus in culture; assay type: cell-based; conditions: Parastagonospora nodorum, read-out: T7 LEPTNO in vitro Growth Inhibition
[4] = system: Puccinia recondita (PUCCRT); assay: Brown Rust of Wheat, whole plant 24 Hour Protectant (T5); conditions: wheat (cultivar Yuma), sprayed at 100 ppm, inoculated after 24 hours, read-out: T5 PUCCRT in vivo 1 Day Protectant, control of fungal infection
[5] = system: Septoria tritici (SEPTTR); assay: Leaf Blotch of Wheat, whole plant 24 Hour Protectant (T6); conditions: Zymoseptoria tritici; wheat (cultivar Monon), sprayed at 100 ppm, inoculated after 24 hours; read-out: T6 SEPTTR in vivo 1 Day Protectant, control of fungal infection
Ustilago maydis (USTIMA) = assay: microbe, parasite or virus in culture; assay type: cell-based; conditions: Mycosarcoma maydis, read-out: T12 USTIMA in vitro Growth Inhibition
[6] = system: Phytophthora infestans (PHYTIN); assay: whole plant or invertebrate; conditions: in Solanum lycopersicum, 24 h, read-out: T3 PHYTIN in vivo 1 Day Protectant, control of fungal infection
[7] = system: Rhizoctonia solani (RHIZSO); assay: microbe, parasite or virus in culture; assay type: cell-based; conditions: read-out: T10 RHIZSO in vitro Growth Inhibition
[8] = system: Phytophthora infestans (PHYTIN); assay: microbe, parasite or virus in culture; assay type: cell-based; conditions: in Secale cereale, read-out: T8 PHYTIN in vitro Growth Inhibition
[9] = system: Mycosphaerella graminicola (Septoria tritici, SEPTTR); assay: microbe, parasite or virus in culture; assay type: cell-based; conditions: Zymoseptoria tritici, read-out: T11 SEPTTR in vitro Growth Inhibition
[10] = system: Magnaporthe grisea (Pyricularia oryzae, PYRIOR); assay: microbe, parasite or virus in culture; assay type: cell-based; conditions: read-out: T9 PYRIOR in vitro Growth Inhibition

SMILES | pest or weed control at 100 ppm [1] | melting point | pest or weed control at 100 ppm [2] | inhibition at 25 ppm [3] | pest or weed control at 100 ppm [4] | pest or weed control at 100 ppm [5] | inhibition at 25 ppm (Ustilago maydis (USTIMA)) | pest or weed control at 100 ppm [6] | inhibition at 25 ppm [7] | inhibition at 25 ppm [8] | inhibition at 25 ppm [9] | inhibition at 25 ppm [10]
CCOCOc1c(OC)ccnc1C(=O)N[C@H]1COC(=O)[C@H](Cc2ccccc2)[C@@H](OC(=O)C(C)C)[C@H](C)OC1=O [Compound 5] | 75 to 100% | 60 to 62 °C | 25 to 74% | > 80% | 75 to 100% | 75 to 100% | < 80% | < 25% | < 80% | < 80% | < 80% | < 80%
COc1ccnc(C(=O)N[C@H]2COC(=O)[C@H](Cc3ccccc3)[C@@H](OC(=O)C(C)C)[C@H](C)OC2=O)c1OCOC(C)C [Compound 7] | 75 to 100% | 124 to 127 °C | 25 to 74% | > 80% | 75 to 100% | 75 to 100% | > 80% | < 25% | < 80% | < 80% | < 80% | < 80%
COc1ccnc(C(=O)N[C@H]2COC(=O)[C@H](Cc3ccccc3)[C@@H](OC(=O)C(C)C)[C@H](C)OC2=O)c1OCOCC(C)C [Compound 9] | 75 to 100% | 133 to 136 °C | < 25% | > 80% | 75 to 100% | 25 to 74% | > 80% | < 25% | > 80% | < 80% | > 80% | < 80%
COc1ccnc(C(=O)N[C@H]2COC(=O)[C@H](Cc3ccccc3)[C@@H](OC(=O)C(C)C)[C@H](C)OC2=O)c1OCO[Si](C)(C)C [Compound 13] | 75 to 100% | 50 to 52 °C | < 25% | > 80% | 75 to 100% | 75 to 100% | < 80% | < 25% | > 80% | < 80% | < 80% | < 80%
COc1ccnc(C(=O)N[C@H]2COC(=O)[C@H](Cc3ccccc3)[C@@H](OC(=O)C(C)C)[C@H](C)OC2=O)c1OCOCCCl [Compound 14] | 75 to 100% | 140 to 143 °C | < 25% | > 80% | 75 to 100% | 75 to 100% | < 80% | < 25% | < 80% | < 80% | < 80% | < 80%
COc1ccnc(C(=O)N[C@H]2COC(=O)[C@H](Cc3ccccc3)[C@@H](OC(=O)C(C)C)[C@H](C)OC2=O)c1OCOCCC#N [Compound 15] | 75 to 100% | 62 to 67 °C | < 25% | > 80% | 75 to 100% | 75 to 100% | > 80% | < 25% | > 80% | < 80% | < 80% | < 80%
COc1ccnc(C(=O)N[C@H]2COC(=O)[C@H](Cc3ccccc3)[C@@H](OC(=O)C(C)C)[C@H](C)OC2=O)c1OCOC(C)=O [Compound 20] | 75 to 100% | 146 to 147 °C | 75 to 100% | > 80% | 75 to 100% | 75 to 100% | > 80% | < 25% | < 80% | < 80% | < 80% | < 80%
CCCC(=O)OCOc1c(OC)ccnc1C(=O)N[C@H]1COC(=O)[C@H](Cc2ccccc2)[C@@H](OC(=O)C(C)C)[C@H](C)OC1=O [Compound 22] | 75 to 100% | 102 to 105 °C | 75 to 100% | > 80% | 75 to 100% | 75 to 100% | < 80% | < 25% | < 80% | < 80% | < 80% | < 80%
COc1ccnc(C(=O)N[C@H]2COC(=O)[C@H](Cc3ccccc3)[C@@H](OC(=O)C(C)C)[C@H](C)OC2=O)c1OCOC(=O)C(C)(C)C [Compound 24] | 75 to 100% | 178 to 179 °C | 25 to 74% | < 80% | 75 to 100% | 75 to 100% | < 80% | < 25% | < 80% | < 80% | > 80% | > 80%
COc1ccnc(C(=O)N[C@H]2COC(=O)[C@H](Cc3ccccc3)[C@@H](OC(=O)C(C)C)[C@H](C)OC2=O)c1OC(C)OC(C)=O (stereo partly shown) [Compound 25] | 75 to 100% | 58 to 65 °C | < 25% | > 80% | 75 to 100% | 75 to 100% | > 80% | < 25% | < 80% | < 80% | > 80% | < 80%
COc1ccnc(C(=O)N[C@H]2COC(=O)[C@H](Cc3ccccc3)[C@@H](OC(=O)C(C)C)[C@H](C)OC2=O)c1OCOC(=O)C1CC1 [Compound 26] | 75 to 100% | 152 to 153 °C | 25 to 74% | > 80% | 75 to 100% | 75 to 100% | < 80% | < 25% | < 80% | < 80% | < 80% | < 80%
COCCC(=O)OCOc1c(OC)ccnc1C(=O)N[C@H]1COC(=O)[C@H](Cc2ccccc2)[C@@H](OC(=O)C(C)C)[C@H](C)OC1=O [Compound 27] | 75 to 100% | 84 to 86 °C | 75 to 100% | > 80% | 75 to 100% | 75 to 100% | < 80% | < 25% | < 80% | < 80% | > 80% | > 80%
CCOCCC(=O)OCOc1c(OC)ccnc1C(=O)N[C@H]1COC(=O)[C@H](Cc2ccccc2)[C@@H](OC(=O)C(C)C)[C@H](C)OC1=O [Compound 28] | 75 to 100% | 50 to 55 °C | 25 to 74% | > 80% | 75 to 100% | 75 to 100% | > 80% | < 25% | > 80% | < 80% | > 80% | > 80%
CCCO[C@H]1[C@H](C)OC(=O)[C@@H](NC(=O)c2nccc(OC)c2OCOC(C)=O)COC(=O)[C@@H]1Cc1ccccc1 [Compound 51] | 75 to 100% | 65 to 120 °C | 75 to 100% | > 80% | 75 to 100% |  | < 80% | < 25% | > 80% | < 80% | > 80% | > 80%
C=C(C)CO[C@H]1[C@H](C)OC(=O)[C@@H](NC(=O)c2nccc(OC)c2OCOC(C)=O)COC(=O)[C@@H]1Cc1ccccc1 [Compound 53] | 75 to 100% | 102 to 104 °C | < 25% | > 80% | 75 to 100% |  | < 80% | < 25% | < 80% | > 80% | > 80% | > 80%
